Assay results as given in paper PMC11816722, “GATA3-Driven ceRNA Network in Lung Adenocarcinoma Bone Metastasis Progression and Therapeutic Implications” (Cancers, 2025).

Molecular target: T1, NPRL3 (Homo sapiens, UniProt Q12980)
T1 sequence (Q12980 1-569): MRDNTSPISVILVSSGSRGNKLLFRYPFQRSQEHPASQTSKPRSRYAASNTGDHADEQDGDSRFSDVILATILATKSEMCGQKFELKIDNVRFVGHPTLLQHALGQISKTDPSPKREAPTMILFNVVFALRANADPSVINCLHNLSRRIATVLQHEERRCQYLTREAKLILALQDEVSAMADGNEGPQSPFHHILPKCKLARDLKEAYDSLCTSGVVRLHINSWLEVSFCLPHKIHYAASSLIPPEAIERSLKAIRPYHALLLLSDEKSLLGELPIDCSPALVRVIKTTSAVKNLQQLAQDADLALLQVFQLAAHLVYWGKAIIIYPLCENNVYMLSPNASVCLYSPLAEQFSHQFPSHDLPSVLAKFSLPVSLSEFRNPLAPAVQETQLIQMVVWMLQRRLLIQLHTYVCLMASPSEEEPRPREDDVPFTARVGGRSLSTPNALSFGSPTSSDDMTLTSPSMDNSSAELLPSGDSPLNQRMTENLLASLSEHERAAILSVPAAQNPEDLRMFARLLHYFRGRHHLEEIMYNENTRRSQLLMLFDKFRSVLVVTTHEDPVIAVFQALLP
Experiment: SPR (Biacore T200, immobilized recombinant NPRL3, steady-state […] fit); supported by DARTS in A549L6 lysate
Type: binding

Compound: O=c1[nH]nc2c3c(cccc13)N=C(CN1Cc3ccccc3C1)N2 [E7449]
- Kd: 11.8 µM
